Read-outs that look alike come from different tables or passages of the source.
How the values were obtained:
[1] = system: BACE1 inhibition in HEKp293 cells transfected with APP751 gene (SWE293); test: SWE293 cellular assay: reduction of Aβ peptide production, ELISA; format: cell-based; conditions: Homo sapiens, read-out: SWE293 ED50
Method: BACE1 inhibition is also assessed in a cellular assay. HEKp293 cells transfected with APP751 gene (SWE293, American Type Culture Collection CRL-1563) are used to assess compounds for reduction in levels of Aβ peptide production. SWE293 cell medium is DMEM supplemented with 10% fetal bovine serum and 2 mM L-glutamine, 1.0 mM sodium pyruvate, 25 mM Hepes Buffer, 0.4 mg/mL geneticin (G418, Gibco BRL 860-181IIJ). Cells are maintained diluting 1:10 for 4 days in T-150 flask and 35 mL of cell media. For plating, cells are rinsed with 5 mL of 1×PBS, trypsinized with 4 mL of 0.05% Tripsin for 1 minute, and 12 mL of cell media is added. These are centrifuged at 1000 rpm for 4 minutes and the media aspirated, then 8 mL of media per flask is added. Based on cell count, appropriate amounts of cell and cell media are combined, and 180 μl per well are plated (96 well) and the plates are incubated overnight at 37° C., 5% CO2. Compounds to be tested are serially diluted 1:3 in DMSO and twice in media (without G418) in V-bottom plates and incubated at room temperature. Plated cells are washed with media, 3×50 μL per well and 17 μL per well of appropriate dilution of compound is added. Plates are incubated for 2 hours, and the wash steps, compound addition and incubation are repeated. Sample is transferred to capture plate (prepared with 266 antibody, see e.g. Johnson-Wood et al., PNAS February 1997, 94: 1550-1555), along with a standard curve of Aβ-40. ELISA assay is used to assess Aβ levels, washing with TBS, 0.05% Tween20 pH 7.5, then adding 1.3 mg/mL 3D6 antibody 1:900 in specimen diluents with thimericol is added (100 μl per well) and incubated for 1 hour. Wash step is repeated and Streptavidin-AP diluted 1:1000 in specimen diluents with thimerisol is added (100 μL per well) and incubated for 1 hour. Wash step is repeated and fluorescent substrate is added, 100 μL per well and incubated for 10 minutes followed by reading the fluorescent signal on a plate reader.

[2] = molecular target: T1, BACE1 (Homo sapiens (Human), UniProt P56817); test: BACE1 AlphaScreen assay (displacement of biotinylated BACE1 binding site probe); conditions: read-out: BACE1 AS IC50
T1 sequence (P56817 46-501): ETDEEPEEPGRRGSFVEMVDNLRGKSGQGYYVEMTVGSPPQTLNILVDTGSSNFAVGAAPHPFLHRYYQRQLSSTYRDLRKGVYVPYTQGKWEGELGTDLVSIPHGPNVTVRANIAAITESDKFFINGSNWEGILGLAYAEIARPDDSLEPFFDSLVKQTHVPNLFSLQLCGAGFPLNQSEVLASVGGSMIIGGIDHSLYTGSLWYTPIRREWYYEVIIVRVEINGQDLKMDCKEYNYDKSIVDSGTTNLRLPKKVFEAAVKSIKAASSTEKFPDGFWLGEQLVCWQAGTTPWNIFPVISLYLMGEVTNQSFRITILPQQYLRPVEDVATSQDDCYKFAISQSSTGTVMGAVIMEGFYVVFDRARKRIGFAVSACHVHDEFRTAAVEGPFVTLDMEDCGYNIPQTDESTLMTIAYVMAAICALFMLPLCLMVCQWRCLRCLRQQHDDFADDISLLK
Method: (§1) BACE1 activity can be assessed in an AlphaScreen® assay. Compounds to be assessed (e.g. compounds as described in the above examples) are serially diluted 1:4 in DMSO, then plated by diluting 10 μL of compound with 40 μl of assay buffer (1×PBS, 0.01% Tween-20, pH 7.0, 0.05% BSA). The diluted compound is transferred (4 μL per well) to a 386 well assay plate and 4 μL of BACE1 enzyme ([…]) is added and incubated for 15 minutes. This assay uses a probe that is a BACE1 binding sight ligand linked to biotin, which can be displaced by test compound dependent on compound binding affinity. This of biotinylated probe (4 μL) is added and incubated for 1 hour, followed with 4 μL of donor and acceptor bead mixture and incubated for 2 hours. The fluorescent signal is read on a plate reader and the value as a function of compound concentration is used to determine the IC50. Compounds are also assessed for BACE1 and Cathepsin D activity using an FP Assay. Compounds to be assessed (e.g. compounds as described in the above examples) are serially diluted 1:3 with DMSO and each concentration point is transferred to a 96 well plate, 6 μL per well, followed by addition of 194 μL of assay buffer (100 mM sodium acetate, pH 4.5 with 0.001% Tween-20). A 10 μL compound sample from this plate is transferred to a well of a 384 well plate and combined with 10 μL per well of BACE1 enzyme (0.3 nM in assay buffer) or Cathepsin D enzyme (1.8 nM in assay buffer) and the plate is incubated at room temperature for 30 minutes.

[3] = molecular target: T1, BACE1; test: BACE1 FP assay; format: biochemical; conditions: pH 4.5
Method: as §1

[4] = molecular target: Cathepsin D (Homo sapiens (Human), UniProt P07339); test: Cathepsin D FP assay; format: biochemical; conditions: pH 4.5, read-out: CatD FP IC50
Cathepsin D, sequence (P07339 65-412, species assumed): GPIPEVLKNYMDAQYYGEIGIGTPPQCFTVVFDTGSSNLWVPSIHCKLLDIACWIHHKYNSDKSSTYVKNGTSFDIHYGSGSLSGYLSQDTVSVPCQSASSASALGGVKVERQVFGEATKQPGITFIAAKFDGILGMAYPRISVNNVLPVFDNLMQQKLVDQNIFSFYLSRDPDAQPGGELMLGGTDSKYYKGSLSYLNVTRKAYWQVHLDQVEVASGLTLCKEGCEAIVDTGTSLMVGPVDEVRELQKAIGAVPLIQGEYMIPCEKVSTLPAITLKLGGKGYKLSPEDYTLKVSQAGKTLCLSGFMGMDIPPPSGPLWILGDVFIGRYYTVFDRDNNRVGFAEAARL
Method: as §1

[5] = dose at which Aβ level is reduced by 50%, HEKp293 SWE293 cells

SMILES	IC50 [1, 5] [nM]	IC50 [2] [nM]	IC50 [3] [nM]	IC50 [4] [nM]	IC50 [1] [nM]
C[C@@]1(c2cc(/C=C/c3ccc(Cl)cc3)ccc2F)CC2(CCC2)OC(N)=N1 [Compound 12-179, (S,E)-8-(5-(4-chlorostyryl)-2-fluorophenyl)-8-methyl-5-oxa-7-azaspiro[3.5]non-6-en-6-amine]	1340	510	4640		
C[C@@]1(c2cc(NC(=O)c3ccc(Cl)cn3)ccc2F)CC2(CCC2)SC(N)=N1 [Compound 9-145, (S)—N-(3-(6-amino-8-methyl-5-thia-7-azaspiro[3.5]non-6-en-8-yl)-4-fluorophenyl)-5-chloropicolinamide]	2	4.5	1.9	> 30000	
CC#Cc1cncc(-c2csc(C3(C)CC4(CCC(F)(F)CC4)OC(N)=N3)c2)c1 (centres unmarked) [Compound 8-109, 9,9-difluoro-4-methyl-4-(4-(5-(prop-1-ynyl)pyridin-3-yl)thiophen-2-yl)-1-oxa-3-azaspiro[5.5]undec-2-en-2-amine]	621	68	1160	6290	
C[C@@]1(c2cc(NC(=O)c3ccc(C4CC4)cn3)ccc2F)CC2(CCC(F)(F)CC2)OC(N)=N1 [Compound 9-137, (S)—N-(3-(2-amino-9,9-difluoro-4-methyl-1-oxa-3-azaspiro[5.5]undec-2-en-4-yl)-4-fluorophenyl)-5-cyclopropylpicolinamide]	88	17	1830		
CC#Cc1cncc(-c2csc([C@@]3(C)CC4(CCOCC4)OC(N)=N3)c2)c1 [Compound 8-105, (R)-4-methyl-4-(4-(5-(prop-1-ynyl)pyridin-3-yl)thiophen-2-yl)-1,9-dioxa-3-azaspiro[5.5]undec-2-en-2-amine]		1330	84900	5250	7470
CC#Cc1cncc(-c2cc([C@]3(C)CC4(CCOCC4)OC(N)=N3)sc2C)c1 [Compound 8-108, (S)-4-methyl-4-(5-methyl-4-(5-(prop-1-ynyl)pyridin-3-yl)thiophen-2-yl)-1,9-dioxa-3-azaspiro[5.5]undec-2-en-2-amine]	485	17.5	1120	9320	
Cc1nc(C(=O)Nc2ccc(F)c([C@]3(C)CC4(CCC4)OC(N)=N3)c2)co1 [Compound 9-138, (S)—N-(3-(6-amino-8-methyl-5-oxa-7-azaspiro[3.5]non-6-en-8-yl)-4-fluorophenyl)-2-methyloxazole-4-carboxamide]	23	11	299	> 30000	
COc1cc(Cl)ccc1C(=O)Nc1ccc(F)c([C@]2(C)CC3(CCC3)OC(N)=N2)c1 [Compound 9-140, (S)—N-(3-(6-amino-8-methyl-5-oxa-7-azaspiro[3.5]non-6-en-8-yl)-4-fluorophenyl)-4-chloro-2-methoxybenzamide]		101	9110		342
C[C@@]1(c2cc(Nc3ncnc4cc(Cl)ccc34)ccc2F)CC2(CCC2)OC(N)=N1 [Compound 11-173, (S)-8-(5-(7-chloroquinazolin-4-ylamino)-2-fluorophenyl)-8-methyl-5-oxa-7-azaspiro[3.5]non-6-en-6-amine]	687		8550		
C[C@]1(c2cc(NC(=O)c3ccc(F)cn3)ccc2F)CC2(CCOCC2)SC(N)=N1 [Compound 9-149, (R)—N-(3-(2-amino-4-methyl-9-oxa-1-thia-3-azaspiro[5.5]undec-2-en-4-yl)-4-fluorophenyl)-5-fluoropicolinamide]		> 1000	8490	21500	
C[C@@]1(c2cc(NC(=O)c3ccc(F)cn3)ccc2F)N=C(N)OC2(CCOCC2)C1(F)F [Compound 9-156, (S)—N-(3-(2-amino-5,5-difluoro-4-methyl-1,9-dioxa-3-azaspiro[5.5]undec-2-en-4-yl)-4-fluorophenyl)-5-fluoropicolinamide]		> 30000	> 30000		> 30000
COc1cnc(C(=O)Nc2ccc(F)c(C3(C)N=C(N)OC4(CCC4)C3(F)F)c2)cn1 (centres unmarked) [Compound 9-164, N-(3-(6-amino-9,9-difluoro-8-methyl-5-oxa-7-azaspiro[3.5]non-6-en-8-yl)-4-fluorophenyl)-5-methoxypyrazine-2-carboxamide]	195			> 30000	
C[C@@]1(c2cc(/C=C/c3ccc(F)cc3)ccc2F)CC2(CCC2)OC(N)=N1 [Compound 12-177, (S,E)-8-(2-fluoro-5-(4-fluorostyryl)phenyl)-8-methyl-5-oxa-7-azaspiro[3.5]non-6-en-6-amine]		1160	21700		1210
CC#Cc1cncc(-c2csc(C3(C)CC4(COC4)SC(N)=N3)c2)c1 (centres unmarked) [Compound 8-112, 8-methyl-8-(4-(5-(prop-1-ynyl)pyridin-3-yl)thiophen-2-yl)-2-oxa-5-thia-7-azaspiro[3.5]non-6-en-6-amine]	222	17	227		
C[C@@]1(c2cc(NC(=O)c3ccc(C(F)(F)F)cn3)ccc2F)CC2(CCC(F)(F)CC2)OC(N)=N1 [Compound 9-132, (S)—N-(3-(2-amino-9,9-difluoro-4-methyl-1-oxa-3-azaspiro[5.5]undec-2-en-4-yl)-4-fluorophenyl)-5-(trifluoromethyl)picolinamide]		6			11
C[C@@]1(c2cc(NC(=O)c3ccc(C#N)cn3)ccc2F)N=C(N)OC2(CCC2)C1(F)F [Compound 9-163, (S)—N-(3-(6-amino-9,9-difluoro-8-methyl-5-oxa-7-azaspiro[3.5]non-6-en-8-yl)-4-fluorophenyl)-5-cyanopicolinamide]		13400	38100		> 30000
COc1cnc(C(=O)Nc2ccc(F)c([C@]3(C)CC4(CCOCC4)SC(N)=N3)c2)cn1 [Compound 9-153, (S)—N-(3-(2-amino-4-methyl-9-oxa-1-thia-3-azaspiro[5.5]undec-2-en-4-yl)-4-fluorophenyl)-5-methoxypyrazine-2-carboxamide]	< 123		33	> 30000	
CC1(c2cc(NC(=O)c3ccc(F)cn3)ccc2F)CC2(CCCCC2)SC(N)=N1 (centres unmarked) [Compound 9-142, N-(3-(2-amino-4-methyl-1-thia-3-azaspiro[5.5]undec-2-en-4-yl)-4-fluorophenyl)-5-fluoropicolinamide]	12				
C[C@@]1(c2cc(NCc3ccc(F)cn3)ccc2F)CC2(CCC2)OC(N)=N1 [Compound 10-169, (S)-8-(2-fluoro-5-((5-fluoropyridin-2-yl)methylamino)phenyl)-8-methyl-5-oxa-7-azaspiro[3.5]non-6-en-6-amine]		3720	179000		5610
C[C@@]1(c2cc(NC(=O)C3CC3)ccc2F)CC2(CCC(F)(F)CC2)OC(N)=N1 [Compound 9-134, (S)—N-(3-(2-amino-9,9-difluoro-4-methyl-1-oxa-3-azaspiro[5.5]undec-2-en-4-yl)-4-fluorophenyl)cyclopropanecarboxamide]	882	801	2330		
C[C@]1(c2cc(NC(=O)c3ccc(Cl)cn3)ccc2F)CC2(CCOCC2)SC(N)=N1 [Compound 9-152, (R)—N-(3-(2-amino-4-methyl-9-oxa-1-thia-3-azaspiro[5.5]undec-2-en-4-yl)-4-fluorophenyl)-5-chloropicolinamide]			1560	10800	

— patent US9493485B2, “Spirocyclic dihydro-thiazine and dihydro-oxazine BACE inhibitors, and compositions and uses thereof” (Imago Pharmaceuticals, Inc., priority 2012, dated 2016)
